Test results: ChEMBL document CHEMBL1201862, “PubChem BioAssay data set” (2004)
Active and inactive are the calls of the source.

Key:
HeLa = assay: ATP-based viability loss in HeLa cells – cell-based, CellTiter-Glo luminescence, cherry-pick samples, cytotoxicity control for MITF activator project, dose response (AID 540259); type: functional; conditions: Homo sapiens
Escherichia coli = assay: microbe, parasite or virus in culture
[1] = molecular target: T1, Type-1 angiotensin II receptor (Homo sapiens, UniProt P30556); assay: antagonism of angiotensin II type 1 receptor – cell-based, uHTS hits, selectivity assay for APJ receptor antagonist project, dose response (AID 463214); type: functional;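 note: antagonist potency against angiotensin II stimulated AT1 response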
T1 sequence (P30556 whole entry): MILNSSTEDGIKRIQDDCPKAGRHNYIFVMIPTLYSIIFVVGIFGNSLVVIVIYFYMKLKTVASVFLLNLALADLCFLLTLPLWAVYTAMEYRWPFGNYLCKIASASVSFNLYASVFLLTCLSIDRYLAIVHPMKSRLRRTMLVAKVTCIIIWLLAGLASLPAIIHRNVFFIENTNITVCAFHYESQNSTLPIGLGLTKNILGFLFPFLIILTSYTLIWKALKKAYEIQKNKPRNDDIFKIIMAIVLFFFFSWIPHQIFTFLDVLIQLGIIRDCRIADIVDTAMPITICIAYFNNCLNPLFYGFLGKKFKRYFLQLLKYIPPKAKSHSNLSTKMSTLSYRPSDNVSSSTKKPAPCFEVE

[2] = molecular target: T2, Oxysterols receptor LXR-beta (Homo sapiens, UniProt P55055); type: functional, cell-based;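 note: agonist activity at LXR measured by a cell-based luminescence readout across a dose range, run as a counterscreen for daf-12 agonists; HEK293 cells with Gal4-LXR fusion and GAL4-driven luciferase reporter; potency for activation of Gal4-LXR reporter so compounds are agonists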
T2 sequence (P55055 whole entry): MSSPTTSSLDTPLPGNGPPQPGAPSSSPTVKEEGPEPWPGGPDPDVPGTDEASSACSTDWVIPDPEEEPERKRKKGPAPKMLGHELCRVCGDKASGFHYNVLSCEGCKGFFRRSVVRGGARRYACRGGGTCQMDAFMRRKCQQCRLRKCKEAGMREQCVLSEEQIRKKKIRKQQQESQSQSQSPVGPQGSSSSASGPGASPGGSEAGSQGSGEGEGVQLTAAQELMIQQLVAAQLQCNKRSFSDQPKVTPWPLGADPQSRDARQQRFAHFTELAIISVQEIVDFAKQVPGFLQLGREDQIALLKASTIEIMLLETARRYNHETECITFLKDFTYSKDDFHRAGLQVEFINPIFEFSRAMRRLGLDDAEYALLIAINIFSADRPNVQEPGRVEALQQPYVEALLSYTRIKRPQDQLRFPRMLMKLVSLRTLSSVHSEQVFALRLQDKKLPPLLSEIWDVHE

HEK293 [3] = assay: cells; conditions: Homo sapiens
[4] = molecular target: Heat shock protein HSP 90-alpha (Homo sapiens, UniProt P07900); type: functional, organism-based
HEK293 [5] = assay: cells; conditions: Homo sapiens; remark: listed apart in the source
Beta-galactosidase = Beta-galactosidase (Escherichia coli, UniProt Q8VNN2); assay: PubChem AID 485352; type: functional
cells = type: functional
[6] = molecular target: Induced myeloid leukemia cell differentiation protein Mcl-1 (Homo sapiens, UniProt Q07820); type: functional
Protein RecA = molecular target: T3, Protein RecA (Mycobacterium tuberculosis, UniProt P9WHJ3); assay: Fluorescence Cell-Free Homogeneous Dose Retest to Identify Inhibitors of RecA-Intein Splicing Activity. [Related pubchem assays (depositor defined):AID2097, AID2223, AID489010, AID492950]; type: functional
T3 sequence (P9WHJ3 whole entry): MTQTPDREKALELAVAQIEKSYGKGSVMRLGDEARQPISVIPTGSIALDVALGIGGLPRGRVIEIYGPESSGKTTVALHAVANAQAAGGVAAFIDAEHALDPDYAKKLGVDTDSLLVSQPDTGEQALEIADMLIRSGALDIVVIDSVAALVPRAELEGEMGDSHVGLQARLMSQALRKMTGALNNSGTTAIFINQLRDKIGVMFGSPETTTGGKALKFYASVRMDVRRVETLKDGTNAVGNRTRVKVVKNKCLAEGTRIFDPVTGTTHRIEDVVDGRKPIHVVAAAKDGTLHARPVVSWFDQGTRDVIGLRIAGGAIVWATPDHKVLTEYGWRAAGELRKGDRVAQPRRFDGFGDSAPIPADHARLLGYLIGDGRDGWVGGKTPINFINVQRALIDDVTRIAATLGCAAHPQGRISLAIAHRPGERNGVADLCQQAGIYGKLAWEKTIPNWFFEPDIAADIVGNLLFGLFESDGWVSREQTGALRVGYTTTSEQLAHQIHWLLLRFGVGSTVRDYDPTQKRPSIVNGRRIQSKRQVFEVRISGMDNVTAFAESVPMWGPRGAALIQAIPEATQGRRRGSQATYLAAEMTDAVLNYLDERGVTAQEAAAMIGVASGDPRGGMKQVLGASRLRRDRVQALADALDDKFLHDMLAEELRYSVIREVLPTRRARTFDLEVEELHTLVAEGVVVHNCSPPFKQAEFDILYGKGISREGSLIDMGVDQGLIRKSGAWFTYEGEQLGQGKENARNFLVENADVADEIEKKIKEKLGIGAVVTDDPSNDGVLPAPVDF

[7] = microbe, parasite or virus in culture; type: functional; conditions: Mycobacterium tuberculosis
[8] = molecular target: T4, Replicative DNA helicase DnaB (Mycobacterium tuberculosis, UniProt P9WMR3); assay: DnaB intein splicing inhibitors, dose response, biochemical, cell-free fluorescence (AID 449749); type: functional
T4 sequence (P9WMR3 whole entry): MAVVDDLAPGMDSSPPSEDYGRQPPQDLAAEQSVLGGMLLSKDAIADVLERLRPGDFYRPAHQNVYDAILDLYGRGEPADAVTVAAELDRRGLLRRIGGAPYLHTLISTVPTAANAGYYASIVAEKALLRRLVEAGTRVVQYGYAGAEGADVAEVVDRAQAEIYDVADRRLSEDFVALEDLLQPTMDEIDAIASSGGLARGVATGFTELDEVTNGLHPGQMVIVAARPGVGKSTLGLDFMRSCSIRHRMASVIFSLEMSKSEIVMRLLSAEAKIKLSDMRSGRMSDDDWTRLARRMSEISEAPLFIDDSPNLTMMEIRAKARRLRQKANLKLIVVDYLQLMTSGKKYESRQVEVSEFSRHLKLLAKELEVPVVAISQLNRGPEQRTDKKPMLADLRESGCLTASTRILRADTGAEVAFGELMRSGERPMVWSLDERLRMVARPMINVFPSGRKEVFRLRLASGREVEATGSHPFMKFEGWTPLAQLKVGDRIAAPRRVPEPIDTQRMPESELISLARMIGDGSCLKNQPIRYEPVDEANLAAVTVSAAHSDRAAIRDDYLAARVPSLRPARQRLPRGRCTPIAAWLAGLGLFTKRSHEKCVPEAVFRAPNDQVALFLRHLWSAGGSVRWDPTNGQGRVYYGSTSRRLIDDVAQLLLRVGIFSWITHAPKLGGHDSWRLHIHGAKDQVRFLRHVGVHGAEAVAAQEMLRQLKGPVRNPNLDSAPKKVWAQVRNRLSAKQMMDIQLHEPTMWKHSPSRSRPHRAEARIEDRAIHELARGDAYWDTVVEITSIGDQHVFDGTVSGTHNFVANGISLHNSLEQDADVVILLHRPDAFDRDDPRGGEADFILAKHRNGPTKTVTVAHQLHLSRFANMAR

[9] = molecular target: T5, Microphthalmia-associated transcription factor (Homo sapiens, UniProt O75030); assay: reducers of TRPM1 reporter luminescence, concentration series – cell-based, SK-MEL-5, cherry-picked, set 3, MITF inhibitor project, dose response (AID 493073); type: functional;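 note: SK-MEL-5 melanoma cells with luciferase driven by the MITF target TRPM1 promoter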
T5 sequence (O75030 whole entry): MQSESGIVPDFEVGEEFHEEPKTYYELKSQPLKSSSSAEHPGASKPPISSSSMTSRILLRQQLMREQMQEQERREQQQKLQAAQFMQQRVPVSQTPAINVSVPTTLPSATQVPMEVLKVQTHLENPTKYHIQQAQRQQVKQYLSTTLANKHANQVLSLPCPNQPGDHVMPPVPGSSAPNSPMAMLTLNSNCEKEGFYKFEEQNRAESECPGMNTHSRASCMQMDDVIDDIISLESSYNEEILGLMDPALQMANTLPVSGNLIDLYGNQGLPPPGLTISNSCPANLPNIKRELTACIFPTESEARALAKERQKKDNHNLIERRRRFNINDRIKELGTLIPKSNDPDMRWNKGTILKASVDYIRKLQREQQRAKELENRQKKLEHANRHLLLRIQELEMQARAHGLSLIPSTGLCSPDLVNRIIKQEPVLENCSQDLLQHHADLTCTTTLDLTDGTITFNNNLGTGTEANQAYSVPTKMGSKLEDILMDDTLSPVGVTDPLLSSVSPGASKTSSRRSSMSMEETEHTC

[10] = HepG2 cell cytotoxicity, dose response, cytotoxicity control for non-replicating M. tuberculosis project (AID 489018); type: functional; conditions: Mycobacterium tuberculosis
[11] = THP-1 cell cytotoxicity, dose response, cytotoxicity control for non-replicating M. tuberculosis project (AID 489025); type: functional

Sequence of Beta-galactosidase (Q8VNN2 whole entry): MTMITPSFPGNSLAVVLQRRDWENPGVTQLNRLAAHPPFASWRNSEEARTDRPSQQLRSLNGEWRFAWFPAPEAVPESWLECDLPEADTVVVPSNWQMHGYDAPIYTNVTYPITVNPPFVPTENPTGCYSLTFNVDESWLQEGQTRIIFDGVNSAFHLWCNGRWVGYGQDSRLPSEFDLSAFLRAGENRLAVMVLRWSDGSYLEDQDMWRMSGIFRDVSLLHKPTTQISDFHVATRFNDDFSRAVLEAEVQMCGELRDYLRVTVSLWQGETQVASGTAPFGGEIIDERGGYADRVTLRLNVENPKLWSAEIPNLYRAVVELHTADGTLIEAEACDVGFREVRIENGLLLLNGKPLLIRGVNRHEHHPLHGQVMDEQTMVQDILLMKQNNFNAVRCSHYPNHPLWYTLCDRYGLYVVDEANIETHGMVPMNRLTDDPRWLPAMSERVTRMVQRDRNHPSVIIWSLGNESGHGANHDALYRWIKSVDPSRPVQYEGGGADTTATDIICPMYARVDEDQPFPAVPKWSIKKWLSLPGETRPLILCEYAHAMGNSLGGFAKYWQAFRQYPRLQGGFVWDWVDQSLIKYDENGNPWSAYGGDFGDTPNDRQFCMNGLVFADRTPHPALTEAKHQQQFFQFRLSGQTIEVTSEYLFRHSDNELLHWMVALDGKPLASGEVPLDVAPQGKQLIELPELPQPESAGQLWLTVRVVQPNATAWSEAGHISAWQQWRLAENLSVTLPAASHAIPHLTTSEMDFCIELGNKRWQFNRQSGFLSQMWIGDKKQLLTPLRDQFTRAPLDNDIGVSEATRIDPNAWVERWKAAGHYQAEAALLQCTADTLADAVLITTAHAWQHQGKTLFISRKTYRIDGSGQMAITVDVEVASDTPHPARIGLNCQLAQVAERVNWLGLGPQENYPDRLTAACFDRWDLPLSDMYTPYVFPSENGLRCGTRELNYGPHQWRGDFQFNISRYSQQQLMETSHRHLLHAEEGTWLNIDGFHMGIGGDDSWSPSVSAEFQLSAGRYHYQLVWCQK
Sequence of Induced myeloid leukemia cell differentiation protein Mcl-1 (Q07820 whole entry): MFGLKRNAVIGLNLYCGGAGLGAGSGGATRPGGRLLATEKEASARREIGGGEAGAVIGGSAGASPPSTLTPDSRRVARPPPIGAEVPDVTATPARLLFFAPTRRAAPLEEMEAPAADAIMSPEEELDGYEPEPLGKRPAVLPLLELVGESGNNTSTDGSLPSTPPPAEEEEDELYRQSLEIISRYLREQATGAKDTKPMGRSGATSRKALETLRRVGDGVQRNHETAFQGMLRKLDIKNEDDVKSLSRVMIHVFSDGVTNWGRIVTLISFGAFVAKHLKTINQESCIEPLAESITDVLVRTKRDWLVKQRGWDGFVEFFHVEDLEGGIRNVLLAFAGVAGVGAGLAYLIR

With CN(C1=NC(=O)/C(=C2\C(=O)Nc3ccccc32)S1)c1ccc(O)cc1 the AC50 (HeLa) was 45.4 µM (active).
In the case of COc1ccc2[nH]c(-c3ccccc3)cc2c1, the AC50 (HeLa) is reported as 55.1 µM (active).
For COc1ccc(OC2OC3COC(c4ccco4)OC3C(O)C2NC(C)=O)cc1 (configuration not stated), the AC50 (Escherichia coli) was 32.1 µM (active).
In the case of COc1cccc(/C=C/c2ccc3cccc(O)c3n2)c1, the IC50 [1] is reported as 15.1 µM (active), the EC50 [2] is reported as > 67.5 µM (inactive) and the EC50 (HEK293 [3]) is reported as > 59.7 µM (inactive). For the same compound, the AC50 [4] was 24.4 µM (active), the EC50 (HEK293 [5]) was > 0.0091 µM (active) and the EC50 (Beta-galactosidase) was > 40 µM (inactive).
For CC(C(=O)NC1CCCC1)N1CCN(S(=O)(=O)c2ccc(C(C)(C)C)cc2)CC1 (configuration not stated), the AC50 (Escherichia coli) was 70.4 µM (active).
For O=C1Nc2ccc(Br)cc2/C1=C/C(=O)c1ccc2c(c1)OCO2, the IC50 (cells) was 15.2 µM (active), the IC50 [6] was 1.29 µM (active) and the EC50 (Protein RecA) was 1.46 µM (active). For the same compound, the EC50 (HEK293 [3]) was > 59.6 µM (inactive), the AC50 [4] was 2.17 µM (active) and the CC50 [7] was 32.2 µM (active). For the same compound, the AC50 [8] was 36.3 µM (active), the AC50 [9] was 25.5 µM (active) and the EC50 (HEK293 [5]) was > 59.6 µM (inactive). For the same compound, the CC50 [10] was 18.9 µM (active) and the CC50 [11] was 11.9 µM (active).
In the case of Cc1ccc(CNC(=O)C2CCCN2C(=O)Nc2ccccc2)cc1 (configuration not stated), the AC50 (Escherichia coli) is reported as 33.2 µM (active).
